Data set [1] can be described thus: Cytotoxicity assay (CellTiter-Glo cell viability, 72 hours). The data set is classed as cell-based. The following applies: African green monkey. The gist of the method: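 Viability measured by CellTiter-Glo luminescence after 72-hour compound exposure (serial dilutions, DMSO control) of Vero monolayers seeded at 5000 cells/well in 10% FBS DMEM. IC50 values are the range of two biologically independent experiments, each run in duplicate.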

In data set [2] the test system is Staphylococcus aureus, NRS70. Put plainly: Minimal inhibitory concentration assay (microbroth dilution). The data set is classed as cell-based. In outline: (§1)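 MIC is the lowest concentration stopping visible growth after overnight aerobic culture at 37 °C, per CLSI microbroth dilution (about 10^5 cfu/mL; two-fold series, top final 200 μM). ClpP-inactivated S. aureus USA 300 tested alongside parent strain to probe ClpP-mediated killing.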
On the technique in general: In broth dilution the organism is exposed to a series of concentrations in liquid medium.

In data set [3] the test system is Bacillus subtilis, ATCC 23857. The description is as above. The data set is classed as cell-based. In outline:
as §1

Data set [4] concerns Staphylococcus aureus, ATCC 29213. The data set is described as above. The data set is classed as cell-based. The following applies: ATCC29213, read-out: Minimal Inhibitory Concentrations S. aureus ATCC 29213. In outline: as §1
The target of a further data set is T1, Sa-ClpP (Staphylococcus aureus, UniProt Q2G036).
T1 construct: made in house; host or cells: E. coli BL21(DE3)
T1 sequence (Q2G036 1-195): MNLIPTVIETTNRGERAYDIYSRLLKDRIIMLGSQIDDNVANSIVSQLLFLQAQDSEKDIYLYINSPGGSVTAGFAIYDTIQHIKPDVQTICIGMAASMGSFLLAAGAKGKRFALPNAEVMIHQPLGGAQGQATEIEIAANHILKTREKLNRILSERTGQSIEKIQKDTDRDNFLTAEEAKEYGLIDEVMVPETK
In words: ADEP displacement fluorescence polarization assay (FP probe ADEP 2591). The data set is classed as binding. As to the method:
A fluorescence polarization (FP) assay was used to determine the activity of the disclosed compounds in displacing an ADEP analogue from ClpP. Briefly, the assay was performed in black 384 well, flat bottom, low volume plates (Greiner Bio-One, Monroe, N.C., catalog #784076). 20 μL of a pre-equilibrated (1 hr, room temperature) master mix (15 μM Sa-ClpP, 2% DMSO (v/v) and 50 nM FP probe in Tris*HCl, pH 8.0)) was pipetted into each well using a Well-Mate (Thermo Scientific, Waltham, Mass.). Sa-ClpP was prepared as described above for the ClpP activation assay. The FP probe was ADEP 2591 (structure shown above). The ADEP 2591 comprises a TAMRA fluorophore linked to a core based on modified ADEP 2378 via a short alkyl linker. Using pin transfer, approximately 0.4 μL (2% v/v DMSO) of each compound or control was added per well. After addition of compounds and controls, plates were allowed to incubate for an additional 120 minutes at room temperature. All assays were performed in triplicate. Polarization was monitored using an EnVision Multilabel reader (Perkin-Elmer, Waltham, Mass.) by exciting the FP probe at 530±25 nm, and monitoring fluorescence intensity of both parallel and perpendicular polarized light at 579±25 nm. Readout was in millipolarization units (mP).
Data collected was normalized to values obtained from positive (200 μM ADEP 2378) or negative (DMSO) controls. Curves were fit with non-linear regression using the equation “log [inhibitor] vs. Response-variable slope (four parameters)-symmetrical” in the program Prism 6 (GraphPad Software, La Jolla, Calif. USA, www.graphpad.com). The structures for ADEP 2378 and ADEP 2591 are shown above. ADEP 2378 is (E)-N—((S)-1-(((2R,6S,8aS,14aS,20S,23aS)-2,6-dimethyl-5,8,14,19,23-pentaoxooctadecahydro-1H,5H,14H,19H-pyrido[2,1-i]dipyrrolo[2,1-c:2′,1′-1][1]oxa[4,7,10,13]tetraazacyclohexadecin-20-yl)amino)-1-oxo-3-phenylpropan-2-yl)pent-2-enamide. ADEP 2591 is 5-(3-(3-((6S,9S,11aS,17S,20aS)-6,10-dimethyl-5,8,11,16,20-pentaoxo-17-((S)-2-((E)-pent-2-enamido)-3-phenylpropanamido)hexadecahydro-1H,5H,16H-dipyrrolo[2,1-c:2′,1′-1][1]oxa[4,7,10,13]tetraazacyclohexadecin-9-yl)propyl)thioureido)-2-(6-(dimethylamino)-3-(dimethyliminio)-3H-xanthen-9-yl)benzoate.
(In fluorescence polarisation assays a small probe gives low polarisation when free and higher when bound to something large.)

Where [5] appears, read: Vero cells, 72 hours, growth inhibition, read-out: Cytotoxicity IC50.
Where [6] appears, read: Staphylococcus aureus, NRS70, read-out: Minimal Inhibitory Concentrations S. aureus NRS70.
[7] abbreviates: Bacillus subtilis, ATCC23857, read-out: Minimal Inhibitory Concentrations B. subtilis ATCC 23857.
[8] abbreviates: Staphylococcus aureus, NRS70; read-out: Minimal Inhibitory Concentrations S. aureus NRS70.
Setting [9] is: Bacillus subtilis, ATCC23857; read-out: Minimal Inhibitory Concentrations B. subtilis ATCC 23857.
The mark [10] stands for this setting: displacement of FP probe ADEP 2591 from Sa-ClpP, read-out: ADEP Displacement IC50.

The structures appear in SMILES notation. In brackets after ≈: the same amount, converted by molar mass. Like-named read-outs stand apart in the source and are kept apart here. *1 amine or outer side, *2 acyl side, *3 side chain or, on linkers, in order; H or OH if unused. Where a SMILES comes first, the peptide text is derived from it. Bridges are numbered along the chain shown (N, C = ends). [ ]: non-standard residue; d: D form. The star is where a group is joined. ξ: configuration not given here. Phe(3,5-F2) = N[C@@H](Cc1cc(F)cc(F)c1)C(=O)O; NH(4-OCF3-phenyl) = FC(F)(F)Oc1ccc(N*)cc1; Pro(4S-Me) = C[C@@H]1CN[C@H](C(=O)O)C1; Pro(4R-Me) = C[C@H]1CN[C@H](C(=O)O)C1; ξPro(4R-OH) = O=C(O)C1C[C@@H](O)CN1; NMeaThr = CN[C@H](C(=O)O)[C@H](C)O; ξPro(4R-Me) = C[C@H]1CNC(C(=O)O)C1; NH(4-Et-phenyl) = CCc1ccc(N*)cc1; NMeT = CN[C@H](C(=O)O)[C@@H](C)O; NH(4-Me-phenyl) = Cc1ccc(N*)cc1; ξNMeThr = CNC(C(=O)O)[C@@H](C)O; aThr = C[C@H](O)[C@H](N)C(=O)O; Pip = O=C(O)[C@@H]1CCCCN1; NMeA = CN[C@@H](C)C(=O)O; CO = O=C([*:1])[*:2]

The source of these data is patent publication US10457707B2, “Substituted urea depsipeptide analogs as activators of the CLPP endopeptidase” (priority 2015, dated 2019).

For `Cc1ccc(NC(=O)N[C@@H](Cc2cc(F)cc(F)c2)C(=O)N[C@@H]2C(=O)N3C[C@H](O)CC3C(=O)N(C)[C@@H](C)C(=O)N[C@@H](C)C(=O)N3C[C@H](C)CC3C(=O)O[C@H]2C)cc1` (stereo partly drawn) [Compound 31, (S)-3-(3,5-difluorophenyl)-N-((2S,6S,9S,11aS,13R,17S,18S,20aS)-13-hydroxy-2,6,9,10,18-pentamethyl-5,8,11,16,20-pentaoxohexadecahydro-1H,5H,16H-dipyrrolo[2,1-c:2′,1′-l][1]oxa[4,7,10,13]tetraazacyclohexadecin-17-yl)-2-(3-(p-tolyl)ureido)propanamide] ({NH(4-Me-phenyl)-CO}-[Phe(3,5-F2)][aThr][ξPro(4R-OH)][NMeA]A[ξPro(4R-Me)]; ester 2-C), in data set [1] (setting [5]), the IC50 at 72 h is greater than 100 µM. Besides, the MIC in data set [2] (setting [6]), in data set [3] (setting [7]) and in data set [4] was 0.39 µM (≈ 0.311 µg/mL) in each case. Also, the IC50 at Sa-ClpP was 5.8 ± 0.3 µM.
As to `Cc1ccc(NC(=O)N[C@@H](Cc2cc(F)cc(F)c2)C(=O)N[C@@H]2C(=O)N3CCC[C@H]3C(=O)N(C)[C@@H]([C@@H](C)O)C(=O)N[C@@H](C)C(=O)N3C[C@@H](C)C[C@H]3C(=O)O[C@H]2C)cc1` [Compound 35, (S)-3-(3,5-difluorophenyl)-N-((2S,6S,9S,11aS,17S,18S,20aS)-9-((R)-1-hydroxyethyl)-2,6,10,18-tetramethyl-5,8,11,16,20-pentaoxohexadecahydro-1H,5H,16H-dipyrrolo[2,1-c:2′,1′-l][1]oxa[4,7,10,13]tetraazacyclohexadecin-17-yl)-2-(3-(p-tolyl)ureido)propanamide] ({NH(4-Me-phenyl)-CO}-[Phe(3,5-F2)][aThr]P[NMeT]A[Pro(4S-Me)]; ester 2-C), in data set [1] (setting [5]), the IC50 at 72 h is 55.7 ± 3.6 µM. Besides, the MIC in data set [2] (setting [6]) was found to be 0.1 µM (≈ 0.0812 µg/mL); in data set [3] (setting [7]), 0.2 µM (≈ 0.162 µg/mL); in data set [4] it was 0.2 µM (≈ 0.162 µg/mL). Besides, at Sa-ClpP, the IC50 came to 6.6 ± 0.4 µM.
For `C[C@H]1C[C@H]2C(=O)O[C@@H](C)[C@H](NC(=O)[C@H](Cc3cc(F)cc(F)c3)NC(=O)Nc3ccc(OC(F)(F)F)cc3)C(=O)N3CCC[C@H]3C(=O)N(C)[C@@H]([C@@H](C)O)C(=O)N[C@@H](C)C(=O)N2C1` [Compound 36, (S)-3-(3,5-difluorophenyl)-N-((2S,6S,9S,11aS,17S,18S,20aS)-9-((R)-1-hydroxyethyl)-2,6,10,18-tetramethyl-5,8,11,16,20-pentaoxohexadecahydro-1H,5H,16H-dipyrrolo[2,1-c:2′,1′-l][1]oxa[4,7,10,13]tetraazacyclohexadecin-17-yl)-2-(3-(4-(trifluoromethoxy)phenyl)ureido)propanamide] ({NH(4-OCF3-phenyl)-CO}-[Phe(3,5-F2)][aThr]P[NMeT]A[Pro(4S-Me)]; ester 2-C), the IC50 at 72 h in data set [1] was 25.4 ± 1.8 µM. For the same molecule, the MIC in data set [2] (setting [8]) stood at 0.05 µM (≈ 0.0441 µg/mL); in data set [3] (setting [9]) it was 0.1 µM (≈ 0.0882 µg/mL); in data set [4], 0.1 µM (≈ 0.0882 µg/mL). Further, the IC50 at Sa-ClpP was 6.4 ± 0.5 µM.
`CCc1ccc(NC(=O)N[C@@H](Cc2cc(F)cc(F)c2)C(=O)N[C@@H]2C(=O)N3CCC[C@H]3C(=O)N(C)[C@@H]([C@@H](C)O)C(=O)N[C@@H](C)C(=O)N3C[C@@H](C)C[C@H]3C(=O)O[C@H]2C)cc1` [Compound 37, (S)-3-(3,5-difluorophenyl)-2-(3-(4-ethylphenyl)ureido)-N-((2S,6S,9S,11aS,17S,18S,20aS)-9-((R)-1-hydroxyethyl)-2,6,10,18-tetramethyl-5,8,11,16,20-pentaoxohexadecahydro-1H,5H,16H-dipyrrolo[2,1-c:2′,1′-l][1]oxa[4,7,10,13]tetraazacyclohexadecin-17-yl)propanamide] ({NH(4-Et-phenyl)-CO}-[Phe(3,5-F2)][aThr]P[NMeT]A[Pro(4S-Me)]; ester 2-C) displayed an IC50 at 72 h in data set [1] of 33.8 ± 1.6 µM. For the same molecule, the MIC in data set [2] (setting [8]) was found to be 0.1 µM (≈ 0.0826 µg/mL); in data set [3] (setting [9]) it was 0.05 µM (≈ 0.0413 µg/mL); in data set [4], 0.1 µM (≈ 0.0826 µg/mL). This molecule returned an IC50 on Sa-ClpP of 7 ± 0.4 µM.
`Cc1ccc(NC(=O)N[C@@H](Cc2cc(F)cc(F)c2)C(=O)N[C@@H]2C(=O)N3CCC[C@H]3C(=O)N(C)[C@@H]([C@H](C)O)C(=O)N[C@@H](C)C(=O)N3C[C@H](C)C[C@H]3C(=O)O[C@H]2C)cc1` [Compound 208, (S)-3-(3,5-difluorophenyl)-N-((2R,6S,9S,11aS,17S,18S,20aS)-9-((S)-1-hydroxyethyl)-2,6,10,18-tetramethyl-5,8,11,16,20-pentaoxohexadecahydro-1H,5H,16H-dipyrrolo[2,1-c:2′,1′-l][1]oxa[4,7,10,13]tetraazacyclohexadecin-17-yl)-2-(3-(p-tolyl)ureido)propanamide] ({NH(4-Me-phenyl)-CO}-[Phe(3,5-F2)][aThr]P[NMeaThr]A[Pro(4R-Me)]; ester 2-C): in data set [1] (setting [5]), the IC50 at 72 h came out at 46.1 ± 5.5 µM. Also, the MIC in data set [3] (setting [7]) and in data set [4] was 0.05 µM (≈ 0.0406 µg/mL) in each case. Further, at Sa-ClpP (setting [10]), the IC50 stood at 6.52 ± 0.3 µM.
For `Cc1ccc(NC(=O)N[C@@H](Cc2cc(F)cc(F)c2)C(=O)N[C@@H]2C(=O)N3CCC[C@H]3C(=O)N3CCCC[C@H]3C(=O)N[C@@H](C)C(=O)N3C[C@H](C)C[C@H]3C(=O)O[C@H]2C)cc1` [Compound 209, (S)-3-(3,5-difluorophenyl)-2-(3-(p-tolyl)ureido)-N-((2R,6S,8aS,14aS,20S,21S,23aS)-2,6,21-trimethyl-5,8,14,19,23-pentaoxooctadecahydro-1H,5H,14H,19H-pyrido[2,1-i]dipyrrolo[2,1-c:2′,1′-l][1]oxa[4,7,10,13]tetraazacyclohexadecin-20-yl)propanamide] ({NH(4-Me-phenyl)-CO}-[Phe(3,5-F2)][aThr]P[Pip]A[Pro(4R-Me)]; ester 2-C), in data set [1] (setting [5]), the IC50 at 72 h amounted to 40 ± 4.1 µM. Besides, the MIC in data set [3] (setting [7]) and in data set [4] was 0.05 µM (≈ 0.0404 µg/mL) each time. Also, the IC50 on Sa-ClpP (setting [10]) came out at 9 ± 0.4 µM.
Regarding `Cc1ccc(NC(=O)N[C@@H](Cc2cc(F)cc(F)c2)C(=O)N[C@H]2COC(=O)[C@@H]3C[C@@H](C)CN3C(=O)[C@H](C)NC(=O)C([C@@H](C)O)N(C)C(=O)[C@@H]3CCCN3C2=O)cc1` (stereo partly drawn) [Compound 322, (S)-3-(3,5-difluorophenyl)-N-((2R,6S,9R,11aS,17S,20aS)-9-((R)-1-hydroxyethyl)-2,6,10-trimethyl-5,8,11,16,20-pentaoxohexadecahydro-1H,5H,16H-dipyrrolo[2,1-c:2′,1′-l][1]oxa[4,7,10,13]tetraazacyclohexadecin-17-yl)-2-(3-(p-tolyl)ureido)propanamide] ({NH(4-Me-phenyl)-CO}-[Phe(3,5-F2)]SP[ξNMeThr]A[Pro(4R-Me)]; ester 2-C), the IC50 at 72 h in data set [1] (setting [5]) is 47.8 ± 3.2 µM. Further, the MIC was found to be 0.313 µM (≈ 0.25 µg/mL) in data set [2] (setting [6]) and 0.078 µM (≈ 0.0622 µg/mL) in data set [3] (setting [7]). At Sa-ClpP, this molecule gave an IC50 of 8.54 ± 0.4 µM.

As a reminder, the IC50 is the concentration at which inhibition is half-maximal.
